Assay results: ChEMBL document CHEMBL2074129 (J Clin Invest, 1995)

Assays:
[1] = biological target: ATP-dependent translocase ABCB1 (Homo sapiens, UniProt P08183); experiment: TP_TRANSPORTER: transepithelial transport (basal to apical) in MDR1-expressing LLC-PK1 cells; format: functional, cell-based; conditions: pig
[2] = biological target: ATP-dependent translocase ABCB1 (Mus musculus, UniProt P21447); experiment: TP_TRANSPORTER: transepithelial transport (basal to apical) in mdr1a-expressing LLC-PK1 cell; format: functional, cell-based; conditions: pig
ATP-dependent translocase ABCB1 (Mus musculus, UniProt P21447), sequence (P21447 whole entry): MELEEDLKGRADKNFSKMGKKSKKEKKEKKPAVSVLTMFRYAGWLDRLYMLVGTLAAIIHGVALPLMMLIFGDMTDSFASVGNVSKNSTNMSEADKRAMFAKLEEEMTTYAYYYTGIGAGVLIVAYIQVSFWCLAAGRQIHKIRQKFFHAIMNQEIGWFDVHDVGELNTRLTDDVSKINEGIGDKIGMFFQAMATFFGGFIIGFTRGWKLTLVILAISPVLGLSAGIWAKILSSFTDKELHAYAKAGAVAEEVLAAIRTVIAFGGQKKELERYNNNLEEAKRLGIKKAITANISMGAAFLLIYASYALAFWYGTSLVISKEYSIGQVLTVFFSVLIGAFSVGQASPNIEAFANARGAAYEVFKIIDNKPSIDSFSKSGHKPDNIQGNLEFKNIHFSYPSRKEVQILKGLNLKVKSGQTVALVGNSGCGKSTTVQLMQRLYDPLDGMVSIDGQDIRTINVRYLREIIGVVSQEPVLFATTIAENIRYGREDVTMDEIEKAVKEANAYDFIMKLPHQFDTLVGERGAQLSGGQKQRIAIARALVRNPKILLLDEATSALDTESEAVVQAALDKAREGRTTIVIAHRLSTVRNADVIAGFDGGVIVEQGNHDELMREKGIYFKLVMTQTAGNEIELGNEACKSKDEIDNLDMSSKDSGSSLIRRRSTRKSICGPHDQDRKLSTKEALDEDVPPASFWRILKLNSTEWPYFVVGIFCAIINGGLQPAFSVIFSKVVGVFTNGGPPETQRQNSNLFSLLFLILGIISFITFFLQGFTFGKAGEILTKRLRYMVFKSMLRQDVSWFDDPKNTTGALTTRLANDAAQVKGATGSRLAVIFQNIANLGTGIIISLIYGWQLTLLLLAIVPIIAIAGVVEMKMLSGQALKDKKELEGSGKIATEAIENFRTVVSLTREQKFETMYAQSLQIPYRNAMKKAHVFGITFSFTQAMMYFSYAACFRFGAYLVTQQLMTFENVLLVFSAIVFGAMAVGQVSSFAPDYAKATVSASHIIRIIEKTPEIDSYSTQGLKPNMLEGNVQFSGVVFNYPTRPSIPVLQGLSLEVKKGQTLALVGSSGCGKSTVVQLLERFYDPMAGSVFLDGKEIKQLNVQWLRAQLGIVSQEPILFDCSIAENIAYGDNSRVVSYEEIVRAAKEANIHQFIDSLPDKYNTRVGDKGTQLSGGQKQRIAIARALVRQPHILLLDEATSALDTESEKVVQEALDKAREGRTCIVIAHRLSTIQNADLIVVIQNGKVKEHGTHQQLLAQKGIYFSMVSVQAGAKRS

ATP-dependent translocase ABCB1 (Homo sapiens, UniProt P08183), sequence (P08183 whole entry): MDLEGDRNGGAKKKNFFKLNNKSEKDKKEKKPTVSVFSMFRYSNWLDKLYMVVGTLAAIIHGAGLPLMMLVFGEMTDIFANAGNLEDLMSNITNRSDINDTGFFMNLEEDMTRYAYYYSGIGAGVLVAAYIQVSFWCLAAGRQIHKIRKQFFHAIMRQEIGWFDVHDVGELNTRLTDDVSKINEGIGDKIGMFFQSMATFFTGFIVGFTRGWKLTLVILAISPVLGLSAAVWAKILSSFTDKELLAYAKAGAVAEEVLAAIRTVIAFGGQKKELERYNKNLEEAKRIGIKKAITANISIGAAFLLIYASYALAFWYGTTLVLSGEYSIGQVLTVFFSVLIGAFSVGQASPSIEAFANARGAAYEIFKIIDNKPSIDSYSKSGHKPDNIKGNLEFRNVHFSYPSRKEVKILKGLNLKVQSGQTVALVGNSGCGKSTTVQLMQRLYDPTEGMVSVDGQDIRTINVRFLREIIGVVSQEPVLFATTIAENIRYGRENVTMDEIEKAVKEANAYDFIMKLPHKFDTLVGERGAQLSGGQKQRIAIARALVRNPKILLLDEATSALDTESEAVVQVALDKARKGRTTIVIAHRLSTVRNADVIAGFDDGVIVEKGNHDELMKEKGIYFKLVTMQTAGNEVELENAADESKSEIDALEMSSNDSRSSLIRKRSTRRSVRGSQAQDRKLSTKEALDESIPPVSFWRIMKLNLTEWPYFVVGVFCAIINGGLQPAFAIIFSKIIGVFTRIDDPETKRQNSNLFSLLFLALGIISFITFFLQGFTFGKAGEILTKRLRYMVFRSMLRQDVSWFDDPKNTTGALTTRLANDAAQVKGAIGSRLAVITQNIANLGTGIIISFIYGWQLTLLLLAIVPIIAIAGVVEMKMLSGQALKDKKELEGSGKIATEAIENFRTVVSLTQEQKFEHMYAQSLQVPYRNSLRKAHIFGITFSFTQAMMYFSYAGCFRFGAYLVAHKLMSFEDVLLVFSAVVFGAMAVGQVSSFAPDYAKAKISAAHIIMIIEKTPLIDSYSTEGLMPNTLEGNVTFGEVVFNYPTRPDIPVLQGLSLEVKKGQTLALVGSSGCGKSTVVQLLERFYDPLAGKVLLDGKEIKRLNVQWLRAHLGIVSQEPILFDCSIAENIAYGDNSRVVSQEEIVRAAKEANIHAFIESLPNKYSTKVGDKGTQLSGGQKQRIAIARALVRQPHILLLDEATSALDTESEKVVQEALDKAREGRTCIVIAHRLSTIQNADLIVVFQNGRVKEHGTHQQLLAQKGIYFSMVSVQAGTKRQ

| Compound | Activity [1] | Activity [2] |
| --- | --- | --- |
| IVERMECTIN | substrate [+] | substrate [+] |
| C[C@@H]1C[C@H]2[C@@H]3CCC4=CC(=O)C=C[C@]4(C)[C@@]3(F)[C@@H](O)C[C@]2(C)[C@@]1(O)C(=O)CO [DEXAMETHASONE] | substrate [+] | substrate [+] |
| CN1CC[C@]23c4c5ccc(O)c4O[C@H]2[C@@H](O)C=C[C@H]3[C@H]1C5 [MORPHINE] | – | substrate [+] |
